# From patent US7105558B2, “Gastrin and cholecystokinin receptor lignads (iv)” (The James Black Foundation Limited, priority 2000, dated 2006)
# Molecular target: T1, gastrin (CCK2) receptors (Rattus norvegicus, UniProt P30553)
# T1 construct: The stomach was excised and flushed with ca. 1 ml of unbuffered physiological saline solution; from tissue; host or cells: isolated whole stomach of immature rats (33-50 g, ca. 21 days old)
# T1 sequence (P30553 1-452): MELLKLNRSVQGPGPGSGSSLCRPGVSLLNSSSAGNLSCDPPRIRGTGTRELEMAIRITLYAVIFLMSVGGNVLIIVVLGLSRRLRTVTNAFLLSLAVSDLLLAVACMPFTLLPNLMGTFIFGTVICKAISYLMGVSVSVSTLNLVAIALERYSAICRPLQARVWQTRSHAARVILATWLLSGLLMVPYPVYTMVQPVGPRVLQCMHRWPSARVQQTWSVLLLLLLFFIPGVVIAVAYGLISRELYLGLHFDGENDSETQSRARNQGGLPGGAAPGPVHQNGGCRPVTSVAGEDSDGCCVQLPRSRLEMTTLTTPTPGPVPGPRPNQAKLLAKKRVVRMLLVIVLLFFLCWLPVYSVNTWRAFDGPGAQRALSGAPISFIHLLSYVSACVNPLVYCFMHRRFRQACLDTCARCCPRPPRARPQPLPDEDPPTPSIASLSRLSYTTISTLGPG
# Experiment: immature rat stomach assay for gastrin (CCK2) antagonist activity (pentagastrin-stimulated acid secretion)
# Settings: isolated immature rat stomach, antagonism of pentagastrin dose-response curves, 60 min incubation; tested as N-methyl D-glucamine salts
# Description: The compounds of the examples were tested for gastrin (CCK2) antagonist activity in an immature rat stomach assay. The procedure was as follows:
# The oesophagus of immature rats (33-50 g, ca. 21 days old) was ligated at the level of the cardiac sphincter and the duodenal sphincter was cannulated. The stomach was excised and flushed with ca. 1 ml of unbuffered physiological saline solution. The fundus was punctured and cannulated. A further 4-5 ml of unbuffered solution was flushed through the stomach to ensure the preparation was not leaking. The stomach was lowered into a jacketed organ bath containing 40 ml of buffered solution containing 3×10^−8 M 5-methylfurmethide, maintained at 37° and gassed vigorously with 95% O2/5% CO2. The stomach was continuously perfused at a rate of 1 ml min^−1 with unbuffered solution gassed with 100% O2 with the perfusate passing over an internally referenced pH-electrode fixed 12 cm above the stomach.
# After 120 min of stabilisation the drugs were added directly to the serosal solution in the organ bath and after a further 60 min cumulative pentagastrin dose-response curves were started. Changes in acid secretion were monitored and the curves analysed according to Black et al, Br. J. Pharmacol., 1985, 86, 581.
row,SMILES,Rat stomach pKB
1,"O=C(O)c1cccc(NC(=O)c2nn(C3CC4CCC3C4)nc2COC23CC4CC(CC(C4)C2)C3)c1 (stereo not drawn) [Example 11, Endo-3-[[5-(Adamantan-1-yloxymethyl)-2-bicyclo[2.2.1]hept-2-yl-2H-[1,2,3]triazole-4-carbonyl]-amino]-benzoic acid]",8.37 ± 0.22

# Same assay, conditions: isolated immature rat stomach, antagonism of pentagastrin dose-response curves, 60 min incubation; tested as N-methyl D-glucamine salts; read-out: Rat stomach pKB (converted)
row,SMILES,Kb
1,"O=C(O)c1cccc(NC(=O)c2nn(C3CCCCCC3)nc2COC23CC4CC(CC(C4)C2)C3)c1 [Example 15, 3-[[5-(Adamantan-1-yloxymethyl)-2-cycloheptyl-2H-[1,2,3]triazole-4-carbonyl]-amino]-benzoic acid]",0.0135 µM
2,"CCc1ccccc1-n1nc(COC23CC4CC(CC(C4)C2)C3)c(C(=O)Nc2cccc(C(=O)O)c2)n1 [Example 8, 3-[[5-(Adamantan-1-yloxymethyl)-2-(2-ethyl-phenyl)-2H-[1,2,3]triazole-4-carbonyl]-amino]-benzoic acid]",0.024 µM
3,"O=C(O)c1cccc(NC(=O)c2nnn(-c3ccccc3Cl)c2COC23CC4CC(CC(C4)C2)C3)c1 [Example 6, 3-[[5-(Adamantan-1-yloxymethyl)-1-(2-chloro-phenyl)-1H-[1,2,3]triazole-4-carbonyl]-amino]-benzoic acid]",0.0933 µM
4,"CC(C)c1ccccc1-n1nc(COC23CC4CC(CC(C4)C2)C3)c(C(=O)Nc2cccc(C(=O)O)c2)n1 [Example 17, 3-[[5-(Adamantan-1-yloxymethyl)-2-(2-isopropyl-phenyl)-2H-[1,2,3]triazole-4-carbonyl]-amino]-benzoic acid]",0.263 µM

# Other lines, results leading:
row,Kb,SMILES
1,1.23 µM,"O=C(O)c1cccc(NC(=O)c2nn(-c3c(Cl)cccc3Cl)nc2COc2ccccc2)c1 [Example 28, 3-{[2-(2,6-Dichloro-phenyl)-5-phenoxymethyl-2H-[1,2,3]triazole-4-carbonyl]-amino}-benzoic acid]"
2,0.191 µM,"O=C(O)c1cccc(NC(=O)c2nn(-c3c(Cl)cc(Cl)cc3Cl)nc2COC23CC4CC(CC(C4)C2)C3)c1 [Example 4, 3-[[5-(Adamantan-1-yloxymethyl)-2-(2,4,6-trichlorophenyl)-2H-[1,2,3]triazole-4-carbonyl]-amino]-benzoic acid]"
